US9556153B1, “JAK1 inhibitors” (Eli Lilly and Company, priority 2015, dated 2017)

Assays:
[1] = test system: Ba/F3 cells expressing human mtJAK1 (S729C); assay: BaF3 Mutant JAK-1 (S729C) Clone 12 Proliferation Assay; assay type: cell-based, Murine; conditions: BaF3, 72 h; 3 day incubation, Cell Titer Glo; n=4
Procedure: BaF3 Mutant JAK-1 (S729C) Clone 12 Proliferation Assay
The purpose of this assay is to determine the inhibitory activity of JAK-1 specific inhibitors using the BaF3 mutant JAK-1 (S729C) Clone 12 proliferation assay.
mtJAK1 (S729C) expressing cell line is created by transducing Ba/F3 cells (Murine pro-B-cells) with a retrovirus expressing human mtJAK1 (S729C)-pQCXIN vector DNA. Single cell cloning is performed to select Ba/F3 cells expressing highest levels of mtJAK1 (S729C) by serial dilution. BaF3 mutant JAK-1 (S729C) suspension cells are cultured and maintained in (Gibco RPMI 1640 cat# A10491-01) containing 10% Hi-FBS (Hyclone cat#10082-047), 1 μg/ml puromycin dihydrochloride (Sigma cat#9620), 1.0 mg/mL G418 sulfate (Corning ref#30-234-CI), referred to as R10+ from now on.
Proliferation assays are performed in culture medium without selection and from now on will be referred to as (R10−). Briefly, cultured cells are decanted, centrifuged and reconstituted in 10 mL of R10− and counted using a Beckman Coulter Vi-Cell. Cells are further diluted to 2e4/mL in R10− and plated in a 96 well white opaque assay plates (Costar cat#3610) at 1×10^3 cells (50 μls) per well. […] Luminescence is then read on a Perkin Elmer Victor2 using a preset program for luminescence at 0.1 second. […]

[2] = test system: phosphorylation of STAT3 in the H1975 xenograft; assay: pSTAT3 Mouse IVTI (JAK1) Assay, H1975 xenograft; assay type: in vivo; conditions: single oral dose, two hours, n=1
Procedure: pSTAT3 Mouse IVTI (JAK1) Assay
The purpose of this assay is to measure the ability of test compounds to inhibit the phosphorylation of STAT3 (STAT3 activation) in the H1975 xenograft mouse model. Grow H1975 cells according to ATCC specifications at the lowest possible passage number available. Culture and maintain cells in RPMI-1640 supplemented with 10% FBS and incubated at 37° C. in 5% CO2. Harvest cells by standard techniques and mix with BD Biosciences basement membrane matrix (MATRIGEL®) to cell suspension to achieve a 1:1 cell/matrix ratio yielding an inoculation volume of 0.2 mL cell/matrix suspension containing 5e6 cells. […] Time course studies are a single dose administered at the TED70 determined from the dose response study.
Harvest and cut tumors to yield approximately 150-250 mm^3 size fragments and immediately drop into a 12×75 mm tube containing 1 mL of ice cold MSD Tris Lysis buffer (Meso Scale Discovery cat# R60TX-2) and 1×HALT (Thermo Scientific product #1861281). […] Cool plate to RT and measure absorbance at or near 562 nm on Molecular Devices Spectra Max. Protein concentrations for each sample are determined using SoftMax Pro 6.3 software program. After tumor samples are quantitated, freeze lysates at −80° C. in the 96 well polypropylene plate and assay at a later date. […]

SMILES: Cc1cc(Nc2cc(O[C@H]3CC[C@@H](NC[C@@H](O)C(F)(F)F)CC3)cc3c2ncn3C)nn1C [Example 1, (2R)-3-{[cis-4-({4-[(1,5-Dimethyl-1H-pyrazol-3-yl)amino]-1-methyl-1H-benzimidazol-6-yl}oxy)cyclohexyl]amino}-1,1,1-trifluoropropan-2-ol]
- IC50 [1]: 956 nM
- TEC50 (plasma concentration to achieve 50% pSTAT3 inhibition) [2]: 11.1 μM
- TED50 (dose necessary to achieve 50% pSTAT3 inhibition) [2]: 35 mg/kg
